For eight molecules, IC50, Activity and solubility results are on record in ChEMBL document CHEMBL1140740, “Discovery of benzisoxazoles as potent inhibitors of chaperone heat shock protein 90” (J Med Chem, 2008).

The structures appear in SMILES notation. Values after ≈ are worked out from the molar mass of the structure shown. Active and inactive are the calls of the source. No cut-off for these calls is given here.

The target in data set [1] is Heat shock protein HSP 90-alpha (Homo sapiens, UniProt P07900).
Description: Inhibition of human Hsp90-alpha by fluorescence polarization assay
Data set [2] deals with HCT-116. The experiment in a line: Antiproliferation activity against human HCT116 cells. Type of data set: functional, cell-based.
The subject of data set [3] is K562. As to the kind of experiment: Upregulation of Hsp70 in K562 cells. To be noted: Homo sapiens. Type of data set: functional, cell-based.
The test system of data set [4] is LNCaP. The experiment in a line: Antiproliferation activity against human LnCap cells. Type of data set: functional, cell-based.
Data set [5] deals with T1, Inhibitor of nuclear factor kappa-B kinase subunit beta (Homo sapiens, UniProt O14920).
T1 sequence (O14920 whole entry): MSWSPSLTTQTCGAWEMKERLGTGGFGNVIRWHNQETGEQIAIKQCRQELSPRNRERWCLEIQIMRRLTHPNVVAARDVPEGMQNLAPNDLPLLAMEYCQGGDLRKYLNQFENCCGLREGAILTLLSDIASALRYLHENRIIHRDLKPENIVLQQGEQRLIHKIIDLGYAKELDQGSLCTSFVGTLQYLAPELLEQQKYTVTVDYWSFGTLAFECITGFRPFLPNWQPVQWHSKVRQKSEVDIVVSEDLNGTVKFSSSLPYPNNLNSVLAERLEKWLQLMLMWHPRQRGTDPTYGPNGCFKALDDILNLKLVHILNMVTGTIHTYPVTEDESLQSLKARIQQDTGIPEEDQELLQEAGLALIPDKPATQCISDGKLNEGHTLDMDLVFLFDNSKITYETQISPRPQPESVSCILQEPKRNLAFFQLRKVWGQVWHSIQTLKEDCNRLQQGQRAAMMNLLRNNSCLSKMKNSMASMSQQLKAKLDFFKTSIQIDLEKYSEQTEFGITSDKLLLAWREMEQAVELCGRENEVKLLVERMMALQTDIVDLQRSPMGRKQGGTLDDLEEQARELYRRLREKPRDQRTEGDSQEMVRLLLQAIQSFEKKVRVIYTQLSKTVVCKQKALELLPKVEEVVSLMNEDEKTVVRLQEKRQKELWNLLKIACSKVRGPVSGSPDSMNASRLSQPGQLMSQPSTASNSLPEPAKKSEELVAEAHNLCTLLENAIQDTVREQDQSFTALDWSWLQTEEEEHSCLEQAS
As to the kind of experiment: Inhibition of IKK2.

In data set [6] the test system is DU-145. As to the kind of experiment: Antiproliferation activity against human DU145 cells. The class given is functional, cell-based.
Data set [7] has as its target T2, Protein kinase C epsilon type (Homo sapiens, UniProt Q02156).
T2 sequence (Q02156 whole entry): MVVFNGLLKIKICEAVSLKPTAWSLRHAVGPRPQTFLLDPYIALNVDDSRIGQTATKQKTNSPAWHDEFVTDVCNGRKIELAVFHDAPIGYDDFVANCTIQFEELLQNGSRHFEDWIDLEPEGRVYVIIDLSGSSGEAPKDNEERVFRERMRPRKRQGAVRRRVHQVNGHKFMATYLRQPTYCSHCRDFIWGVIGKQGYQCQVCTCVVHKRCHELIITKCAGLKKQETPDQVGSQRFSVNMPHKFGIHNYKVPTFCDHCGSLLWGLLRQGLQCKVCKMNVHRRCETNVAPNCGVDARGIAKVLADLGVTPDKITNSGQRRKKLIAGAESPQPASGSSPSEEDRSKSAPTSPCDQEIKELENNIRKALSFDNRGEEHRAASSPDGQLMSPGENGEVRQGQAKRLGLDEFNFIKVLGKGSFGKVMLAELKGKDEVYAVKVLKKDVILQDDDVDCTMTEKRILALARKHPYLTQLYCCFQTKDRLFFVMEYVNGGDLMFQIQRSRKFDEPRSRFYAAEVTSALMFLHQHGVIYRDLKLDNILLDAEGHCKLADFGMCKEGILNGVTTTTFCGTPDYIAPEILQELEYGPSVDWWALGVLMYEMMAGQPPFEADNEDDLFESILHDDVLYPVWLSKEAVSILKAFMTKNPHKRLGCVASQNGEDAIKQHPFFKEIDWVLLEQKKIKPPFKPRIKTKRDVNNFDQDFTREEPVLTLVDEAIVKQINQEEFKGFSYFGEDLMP
As to the kind of experiment: Inhibition of PKC epsilon.

For data set [8], the system named is SK-BR-3. As to the kind of experiment: Degradation of HER2 in human SKBR3 cells. Type of data set: functional, cell-based.
The target in data set [9] is Serine/threonine-protein kinase mTOR (Homo sapiens, UniProt P42345). The experiment in a line: Inhibition of mTOR.
Data set [10] deals with Activin receptor type-2B (Homo sapiens, UniProt Q13705). As to the kind of experiment: Inhibition of ActR2B.
Data set [11] concerns the target MAP kinase-activated protein kinase 2 (Homo sapiens, UniProt P49137). As to the kind of experiment: Inhibition of MK2.
The subject of data set [12] is K562. As to the kind of experiment: Degradation of actin in human K562 cells. The class given is functional, cell-based.
Data set [13] deals with LNCaP. The experiment in a line: Androgen receptor degradation in human LnCAP cells. The class given is functional, cell-based.
A short description of data set [14]: Antiproliferation activity against human H157 cells. The class given is functional, cell-based. To be noted: NCI-H157.
Data set [15] addresses Phosphatidylinositol 4,5-bisphosphate 3-kinase catalytic subunit alpha isoform (Homo sapiens, UniProt P42336). As to the kind of experiment: Inhibition of P13K alpha.
Data set [16] has as its system K562. The experiment in a line: Downregulation of Bcr-Abl in human K562 cells. Type of data set: functional, cell-based.
For data set [17], the target named is Protein kinase C theta type (Homo sapiens, UniProt Q04759). As to the kind of experiment: Inhibition of PKC theta.
Data set [18] concerns HCT-116. As to the kind of experiment: Antiproliferation activity against human HCT116 cells in presence of geldanamycin. The class given is functional, cell-based.
Data set [19] relates to SK-BR-3. As to the kind of experiment: Antiproliferation activity against human SKBR3 cells. The class given is functional, cell-based.
The target of data set [20] is Serine/threonine-protein kinase B-raf (Homo sapiens, UniProt P15056). As to the kind of experiment: Inhibition of B-Raf.
A short description of data set [21]: Aqueous solubility at pH 7.4. Type of data set: physicochemical.
Data set [22] concerns HCT-116. As to the kind of experiment: Antiproliferation activity against human HCT116 cells.

Sequence of Serine/threonine-protein kinase B-raf (P15056 whole entry): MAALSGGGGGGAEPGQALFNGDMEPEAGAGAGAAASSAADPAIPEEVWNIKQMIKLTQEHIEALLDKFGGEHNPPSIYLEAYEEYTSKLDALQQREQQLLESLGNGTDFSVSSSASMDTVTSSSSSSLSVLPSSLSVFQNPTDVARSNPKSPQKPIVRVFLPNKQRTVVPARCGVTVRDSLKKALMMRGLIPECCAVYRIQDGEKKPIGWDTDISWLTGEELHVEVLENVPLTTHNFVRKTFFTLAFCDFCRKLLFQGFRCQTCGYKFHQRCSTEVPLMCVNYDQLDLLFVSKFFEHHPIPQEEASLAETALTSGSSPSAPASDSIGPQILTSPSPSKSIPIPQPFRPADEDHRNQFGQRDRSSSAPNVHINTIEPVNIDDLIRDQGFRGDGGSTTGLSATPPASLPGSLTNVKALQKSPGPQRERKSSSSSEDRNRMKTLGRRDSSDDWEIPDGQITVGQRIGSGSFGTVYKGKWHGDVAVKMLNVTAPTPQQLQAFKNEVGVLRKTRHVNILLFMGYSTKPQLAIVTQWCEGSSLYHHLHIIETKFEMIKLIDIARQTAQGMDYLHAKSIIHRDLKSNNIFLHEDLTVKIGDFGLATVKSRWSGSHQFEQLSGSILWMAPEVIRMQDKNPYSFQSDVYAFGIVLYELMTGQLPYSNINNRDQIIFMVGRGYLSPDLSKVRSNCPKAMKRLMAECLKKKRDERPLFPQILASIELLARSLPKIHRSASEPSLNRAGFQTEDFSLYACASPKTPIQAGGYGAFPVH
Sequence of Phosphatidylinositol 4,5-bisphosphate 3-kinase catalytic subunit alpha isoform (P42336 whole entry, canonical isoform): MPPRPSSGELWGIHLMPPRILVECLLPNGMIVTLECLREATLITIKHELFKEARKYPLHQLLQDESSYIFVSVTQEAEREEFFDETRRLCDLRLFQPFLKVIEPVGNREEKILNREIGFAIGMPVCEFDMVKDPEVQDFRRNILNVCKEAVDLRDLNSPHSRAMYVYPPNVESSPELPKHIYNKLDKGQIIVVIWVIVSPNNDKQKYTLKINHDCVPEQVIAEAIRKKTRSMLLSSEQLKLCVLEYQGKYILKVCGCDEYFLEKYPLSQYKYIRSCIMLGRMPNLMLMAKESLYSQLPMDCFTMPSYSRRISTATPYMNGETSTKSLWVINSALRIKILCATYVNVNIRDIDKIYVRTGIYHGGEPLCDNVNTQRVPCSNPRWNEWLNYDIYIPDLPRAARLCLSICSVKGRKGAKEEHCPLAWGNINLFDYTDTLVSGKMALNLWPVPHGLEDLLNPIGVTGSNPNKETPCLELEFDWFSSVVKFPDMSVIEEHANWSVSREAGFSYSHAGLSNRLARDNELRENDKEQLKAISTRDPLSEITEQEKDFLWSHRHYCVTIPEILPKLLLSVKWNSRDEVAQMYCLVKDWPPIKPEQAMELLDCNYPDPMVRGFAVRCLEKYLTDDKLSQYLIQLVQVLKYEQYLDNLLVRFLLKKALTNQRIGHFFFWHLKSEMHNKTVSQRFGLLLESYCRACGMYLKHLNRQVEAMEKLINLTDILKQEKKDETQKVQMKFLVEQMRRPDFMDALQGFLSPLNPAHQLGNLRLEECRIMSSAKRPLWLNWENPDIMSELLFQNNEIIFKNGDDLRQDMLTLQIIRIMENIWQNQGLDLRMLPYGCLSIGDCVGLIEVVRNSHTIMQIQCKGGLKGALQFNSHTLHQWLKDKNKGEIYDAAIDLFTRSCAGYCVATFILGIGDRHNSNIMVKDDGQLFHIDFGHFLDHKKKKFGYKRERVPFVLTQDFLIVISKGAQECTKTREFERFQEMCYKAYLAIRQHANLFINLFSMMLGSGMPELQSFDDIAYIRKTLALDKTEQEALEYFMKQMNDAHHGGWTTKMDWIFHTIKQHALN
Sequence of Protein kinase C theta type (Q04759 whole entry): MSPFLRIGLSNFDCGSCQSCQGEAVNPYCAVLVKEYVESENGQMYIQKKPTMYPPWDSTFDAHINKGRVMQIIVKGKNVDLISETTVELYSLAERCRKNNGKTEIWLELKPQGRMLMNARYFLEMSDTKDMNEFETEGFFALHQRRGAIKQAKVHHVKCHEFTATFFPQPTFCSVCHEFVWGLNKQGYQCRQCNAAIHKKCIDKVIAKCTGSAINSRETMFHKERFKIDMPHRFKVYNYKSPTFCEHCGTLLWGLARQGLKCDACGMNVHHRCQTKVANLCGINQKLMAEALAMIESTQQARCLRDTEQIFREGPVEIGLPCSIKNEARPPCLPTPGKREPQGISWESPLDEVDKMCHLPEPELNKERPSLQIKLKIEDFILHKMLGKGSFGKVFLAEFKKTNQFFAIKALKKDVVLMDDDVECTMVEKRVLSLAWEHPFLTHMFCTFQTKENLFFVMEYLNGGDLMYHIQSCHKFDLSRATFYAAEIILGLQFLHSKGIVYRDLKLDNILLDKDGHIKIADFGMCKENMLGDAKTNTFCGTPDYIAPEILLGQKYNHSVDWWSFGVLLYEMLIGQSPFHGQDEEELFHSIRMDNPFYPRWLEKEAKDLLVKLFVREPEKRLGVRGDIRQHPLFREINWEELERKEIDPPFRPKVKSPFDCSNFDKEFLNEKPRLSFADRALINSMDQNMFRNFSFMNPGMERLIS
Sequence of Activin receptor type-2B (Q13705 whole entry): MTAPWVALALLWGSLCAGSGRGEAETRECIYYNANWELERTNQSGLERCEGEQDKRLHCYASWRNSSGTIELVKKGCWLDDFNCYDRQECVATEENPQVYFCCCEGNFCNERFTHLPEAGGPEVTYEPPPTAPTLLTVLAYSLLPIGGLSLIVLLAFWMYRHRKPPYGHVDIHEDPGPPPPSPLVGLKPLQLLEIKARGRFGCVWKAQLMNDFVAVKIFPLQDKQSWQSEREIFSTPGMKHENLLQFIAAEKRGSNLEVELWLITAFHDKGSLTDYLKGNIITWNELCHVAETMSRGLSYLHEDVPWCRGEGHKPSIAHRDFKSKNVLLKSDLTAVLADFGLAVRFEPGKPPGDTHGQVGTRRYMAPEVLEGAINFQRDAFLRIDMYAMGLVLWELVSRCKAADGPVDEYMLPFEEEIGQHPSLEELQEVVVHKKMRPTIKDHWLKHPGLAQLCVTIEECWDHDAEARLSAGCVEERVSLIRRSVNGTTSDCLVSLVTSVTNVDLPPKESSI
Sequence of MAP kinase-activated protein kinase 2 (P49137 whole entry): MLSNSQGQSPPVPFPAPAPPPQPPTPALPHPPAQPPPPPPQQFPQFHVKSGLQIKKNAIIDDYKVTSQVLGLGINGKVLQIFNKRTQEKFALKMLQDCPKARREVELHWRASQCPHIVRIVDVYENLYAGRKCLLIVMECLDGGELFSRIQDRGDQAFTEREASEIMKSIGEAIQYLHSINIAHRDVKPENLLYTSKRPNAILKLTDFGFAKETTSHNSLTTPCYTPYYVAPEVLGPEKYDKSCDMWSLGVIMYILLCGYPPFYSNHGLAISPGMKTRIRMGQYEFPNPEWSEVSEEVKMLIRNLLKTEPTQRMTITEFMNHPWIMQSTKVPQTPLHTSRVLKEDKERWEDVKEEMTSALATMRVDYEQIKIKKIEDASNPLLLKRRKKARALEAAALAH

One may read the IC50 as the concentration at which inhibition is half-maximal. In the case of `Oc1ccc(-c2noc3cc(O)ccc23)c(O)c1`, in data set [1], the IC50 came out at 15200 nM.
With `CN1CCN(c2ccc3onc(-c4cc(Cl)c(O)cc4O)c3c2)CC1`, the IC50 stood at 800 nM in data set [1] and 9400 nM in data set [2].
Consider `COc1cc(OC)c(-c2noc3ccc(NCCN4CCOCC4)cc23)cc1Cl`, for which, in [1], the IC50 was > 20000 nM.
Consider `Oc1cc(O)c(-c2noc3ccc(NCCN4CCOCC4)cc23)cc1Cl`, for which the result in data set [3] and in [16] was Active. Also, the IC50 in [4] is 170 nM; in data set [5] it was > 20000 nM; in [6], 290 nM; in data set [7], > 20000 nM; in data set [8], 330 nM; in [9], > 20000 nM. The 50% inhibitory concentration (IC50) in data set [10] was > 20000 nM; in data set [11], > 20000 nM; in data set [13], 330 nM; in [14], 230 nM; in data set [15], > 20000 nM; in data set [2], 280 nM. In addition, the IC50 in data set [17] was > 20000 nM; in data set [18], 50 nM; in [19], 370 nM; in data set [20], > 20000 nM. Also, the outcome in data set [12] was inactive.
`COc1ccc2c(-c3cc(Cl)c(OC)cc3OC)noc2c1`: in data set [1], the IC50 was > 20000 nM.
As usually defined, the solubility is the concentration that dissolves in the medium under given conditions. Regarding `Oc1ccc2c(-c3cc(Br)c(O)cc3O)noc2c1`, the IC50 in data set [8] and in [22] was ≥ 20000 nM throughout. Besides, the solubility in data set [21] is 4 µg/mL (≈ 12.4 µM).
In the case of `Oc1ccc2c(-c3cc(Cl)c(O)cc3O)noc2c1`, in data set [1], 60 nM corresponded to half-maximal inhibition (IC50).
On the same count and under the same terms, next, `Oc1cc(O)c(-c2noc3ccc(NCCN4CCOCC4)cc23)cc1Br`: 40 nM.
